From patent US10766890B2, “Hepatitis B core protein modulators” (Assembly Biosciences, Inc., priority 2015, dated 2020)

Experiments:
[1] = tested on: AD38 cells; experiment: Viability of AD38 cells, Promega CellTiter-Glo; type: cell-based; details: 10 μM compound, 6 days, CellTiter-Glo luminescence, controls being 100%
Experimental: (§1) Example 63: Assay Measuring Activity of Compounds on Viral Production in and on Viability of AD38 Cells
(§2) AD38 cells were then re-suspended with 10 mL of Treatment Medium and counted. Wells of a collagen coated 96-well NUNC microtiter plate were seeded at 50,000/well in 180 μL of Treatment Medium, and 20 μL of in treatment media with either 10% DMSO (Control) or a 10× solution of compound in 10% DMSO was added. Plates were incubated for 6 days at 37° C.
At the end of compound treatment period cell viability was assessed using a Promega CellTiter-Glo protocol. All supernatant was removed the previously treated 96-well microtiter plate, and 50 μL Tetracycline-free treatment medium (DMEM/F12 (1:1), 1×Pen/step (cat#: 30-002-CL, Mediatech, Inc), with 2% FBS, Tet-system approved (cat#: 631106, Clontech), and 1% DMSO was added back to each well. Another 50 μL of CellTiter-Glo reagent solution (Promega, G7573) was then added at room temperature and the contents mixed for 2 minutes on an orbital shaker to induce cell lysis. This was followed by incubation at room temperature for 10 minutes to stabilize the luminescent signal. The luminescence was recorded for 0.2 seconds per well on a Tecan multimode platereader (Infinite M1000 pro). The luminescent signal from each well was normalized against that of untreated (DMSO) control wells. All results in Table 3 were reported with percent viability (with controls being 100%).

[2] = tested on: HBV; experiment: Viral load production in AD38 cells, quantitative PCR of the core sequence in supernatant; type: cell-based; details: 10 μM compound, 6 days at 37° C., supernatant qPCR vs DMSO control; for activity at 10 µM: Hepatitis B virus, 144 h, read-out: AD38 Viral Load (%) (VL with cmpd/VL in DMSO control) at 10 μM
Experimental: as §1, §2
Viral load production was assayed by quantitative PCR of the core sequence. […] The PCR mixture was incubated at 45° C. for 5 minutes, then 95° C. for 10 min, followed by 40 cycles of 10 seconds at 95° C. and 20 seconds at 60° C. Viral load was quantitated against known standards by using ViiA™ 7 Software. Viral load in the supernatant from wells with treated cells were compared against viral load in supernatant from DMSO control wells (≥3 per plate).

SMILES	AD38 Viability Normalized Result (cmpd/DMSO %) at 10 μM [1]	AD38 Viral Load (%) (VL with cmpd/VL in DMSO control) at 10 μM [2]	activity at 10 µM [2]
NCc1ccc(-c2ccc(CNC(=O)c3ccc4c(c3)NC(=O)c3ccccc3O4)cc2)cc1 [Compound 726]	1%	6.1%	–
N#Cc1cccc(-c2ccc(CNC(=O)c3ccc4c(c3)NC(=O)c3ccccc3O4)cc2)c1 [Compound 728-A]	120%	–	66.8%
O=C(NCc1ccc(-c2ccc3[nH]cnc3c2)cc1)c1ccc2c(c1)NC(=O)c1ccccc1O2 [Compound 729]	97%	–	16.3%
O=C(NCc1ccc(-c2ccc3[nH]ccc3c2)cc1)c1ccc2c(c1)NC(=O)c1ccccc1O2 [Compound 730]	101%	–	24.2%
O=C(NCc1cccc(Cc2cccc(O)c2)c1)c1ccc2c(c1)NC(=O)c1ccccc1O2 [Compound 740]	103%	–	23.8%
O=C(NCc1cccc(Cc2ccc(O)cc2)c1)c1ccc2c(c1)NC(=O)c1ccccc1O2 [Compound 741, N-(3-(4-hydroxybenzyl)benzyl)-11-oxo-10,11-dihydrodibenzo[b,f][1,4]oxazepine-8-carboxamide]	111%	–	40.1%
COc1ccc(Cc2cccc(CNC(=O)c3ccc4c(c3)NC(=O)c3ccccc3O4)c2)cc1 [Compound 741-A]	89%	–	42.4%
O=C(NCc1cccc(Sc2cccc(O)c2)c1)c1ccc2c(c1)NC(=O)c1ccccc1O2 [Compound 742, N-(3-((3-hydroxyphenyl)thio)benzyl)-11-oxo-10,11-dihydrodibenzo[b,f][1,4]oxazepine-8-carboxamide]	89%	–	12.7%
COc1cccc(Sc2cccc(CNC(=O)c3ccc4c(c3)NC(=O)c3ccccc3O4)c2)c1 [Compound 742-A, N-(3-((3-methoxyphenyl)thio)benzyl)-11-oxo-10,11-dihydrodibenzo[b,f][1,4]oxazepine-8-carboxamide]	107%	–	2.6%
O=C(NCc1cccc(Sc2ccc(O)cc2)c1)c1ccc2c(c1)NC(=O)c1ccccc1O2 [Compound 743, N-(3-((4-hydroxyphenyl)thio)benzyl)-11-oxo-10,11-dihydrodibenzo[b,f][1,4]oxazepine-8-carboxamide]	102%	–	6.8%
COc1ccc(Sc2cccc(CNC(=O)c3ccc4c(c3)NC(=O)c3ccccc3O4)c2)cc1 [Compound 743-A]	91%	–	22.7%
O=C(NCc1cccc(Oc2cccc(O)c2)c1)c1ccc2c(c1)NC(=O)c1ccccc1O2 [Compound 744, N-(3-(3-hydroxyphenoxy)benzyl)-11-oxo-10,11-dihydrodibenzo[b,f][1,4]oxazepine-8-carboxamide]	108%	–	62.9%
COc1cccc(Oc2cccc(CNC(=O)c3ccc4c(c3)NC(=O)c3ccccc3O4)c2)c1 [Compound 744-A, N-(3-(3-methoxyphenoxy)benzyl)-11-oxo-10,11-dihydrodibenzo[b,f][1,4]oxazepine-8-carboxamide]	103%	–	8.9%
O=C(NCc1cccc(Oc2ccc(O)cc2)c1)c1ccc2c(c1)NC(=O)c1ccccc1O2 [Compound 745, N-(3-(4-hydroxyphenoxy)benzyl)-11-oxo-10,11-dihydrodibenzo[b,f][1,4]oxazepine-8-carboxamide]	108%	–	38.7%
COc1ccc(Oc2cccc(CNC(=O)c3ccc4c(c3)NC(=O)c3ccccc3O4)c2)cc1 [Compound 745-A, N-(3-(4-methoxyphenoxy)benzyl)-11-oxo-10,11-dihydrodibenzo[b,f][1,4]oxazepine-8-carboxamide]	92%	–	16.1%
NC(=O)c1ccc(-c2ccc(CNC(=O)c3ccc4c(c3)NC(=O)c3ccccc3S4(=O)=O)cc2)cc1 [Compound 765]	103%	59.4%	–
O=C(NCc1cccc(-c2ccc(O)cc2)c1)c1ccc2c(c1)NC(=O)c1ccccc1S2(=O)=O [Compound 773]	87%	–	0.6%
O=C(NCc1cccc(-c2cccc(O)c2)c1)c1ccc2c(c1)NC(=O)c1ccccc1S2(=O)=O [Compound 774]	113%	–	48.5%
COc1ccc(-c2ccc(CNC(=O)c3ccc4c(c3)NC(=O)c3ccccc3S4(=O)=O)cc2)cn1 [Compound 775, N-(4-(6-methoxypyridin-3-yl)benzyl)-11-oxo-10,11-dihydrodibenzo[b,f][1,4]thiazepine-8-carboxamide 5,5-dioxide]	93%	–	2.6%
O=C(NCc1ccc(-c2ccc(O)nc2)cc1)c1ccc2c(c1)NC(=O)c1ccccc1S2(=O)=O [Compound 776, N-(4-(6-hydroxypyridin-3-yl)benzyl)-11-oxo-10,11-dihydrodibenzo[b,f][1,4]thiazepine-8-carboxamide 5,5-dioxide]	100%	–	63.1%
Nc1ncc(-c2ccc(CNC(=O)c3ccc4c(c3)NC(=O)c3ccccc3S4(=O)=O)cc2)cn1 [Compound 777]	99%	–	11.7%
O=C(NCc1cccc(Cc2cccc(O)c2)c1)c1ccc2c(c1)NC(=O)c1ccccc1S2(=O)=O [Compound 808, N-(3-(3-hydroxybenzyl)benzyl)-11-oxo-10,11-dihydrodibenzo[b,f][1,4]thiazepine-8-carboxamide 5,5-dioxide]	90%	–	3%
COc1cccc(Cc2cccc(CNC(=O)c3ccc4c(c3)NC(=O)c3ccccc3S4(=O)=O)c2)c1 [Compound 808-A, N-(3-(3-methoxybenzyl)benzyl)-11-oxo-10,11-dihydrodibenzo[b,f][1,4]thiazepine-8-carboxamide 5,5-dioxide]	84%	–	1.5%
O=C(NCc1cccc(Cc2ccc(O)cc2)c1)c1ccc2c(c1)NC(=O)c1ccccc1S2(=O)=O [Compound 809, N-(3-(4-hydroxybenzyl)benzyl)-11-oxo-10,11-dihydrodibenzo[b,f][1,4]thiazepine-8-carboxamide 5,5-dioxide]	77%	–	1.1%
COc1ccc(Cc2cccc(CNC(=O)c3ccc4c(c3)NC(=O)c3ccccc3S4(=O)=O)c2)cc1 [Compound 809-A, N-(3-(4-methoxybenzyl)benzyl)-11-oxo-10,11-dihydrodibenzo[b,f][1,4]thiazepine-8-carboxamide 5,5-dioxide]	85%	–	0.6%
O=C(NCc1cccc(Oc2cccc(O)c2)c1)c1ccc2c(c1)NC(=O)c1ccccc1S2(=O)=O [Compound 810, N-(3-(3-hydroxyphenoxy)benzyl)-11-oxo-10,11-dihydrodibenzo[b,f][1,4]thiazepine-8-carboxamide 5,5-dioxide]	93%	–	3.2%
COc1cccc(Oc2cccc(CNC(=O)c3ccc4c(c3)NC(=O)c3ccccc3S4(=O)=O)c2)c1 [Compound 810-A, N-(3-(3-methoxyphenoxy)benzyl)-11-oxo-10,11-dihydrodibenzo[b,f][1, 4]thiazepine-8-carboxamide 5,5-dioxide]	90%	–	1.1%
O=C(NCc1cccc(Oc2ccc(O)cc2)c1)c1ccc2c(c1)NC(=O)c1ccccc1S2(=O)=O [Compound 811, N-(3-(4-hydroxyphenoxy)benzyl)-11-oxo-10,11-dihydrodibenzo[b,f][1,4]thiazepine-8-carboxamide 5,5-dioxide]	95%	–	1.2%
COc1ccc(Oc2cccc(CNC(=O)c3ccc4c(c3)NC(=O)c3ccccc3S4(=O)=O)c2)cc1 [Compound 811-A, N-(3-(4-methoxyphenoxy)benzyl)-11-oxo-10,11-dihydrodibenzo[b,f][1,4]thiazepine-8-carboxamide 5,5-dioxide]	86%	–	1.9%
O=C(NCc1cccc(Sc2cccc(O)c2)c1)c1ccc2c(c1)NC(=O)c1ccccc1S2(=O)=O [Compound 812, N-(3-((3-hydroxyphenyl)thio)benzyl)-11-oxo-10,11-dihydrodibenzo[b,f][1,4]thiazepine-8-carboxamide 5,5-dioxide]	99%	–	5.1%
